# From PubChem BioAssay AID1918958 (Molecular Pharmacology Branch, DTP, NCI, 2023)
# Tested on: NCI-H196 complex spheroid viability
# Test: Anticancer human tumor NCI-H196 cell line growth inhibition [LSD1];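 also: spheroids exposed to agents for 7 days before readout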;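 as to viability, T/C: 100% = DMSO vehicle control viability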
# Details: for IC50: curve of first compound; for viability, T/C: stronger effect = lower value
# From the text: Multicellular complex tumor spheroid response to LSD1 Inhibitor Iadademstat in combination with a variety of drugs and investigational agents in selected tumor cell lines
# The current study was undertaken to assess response to LSD1 inhibitors in combination with standard-of-care drugs and investigational agents in solid tumor complex spheroid models as well as in the K-562 leukemia. Complex spheroids include a stromal component modeled by human endothelial cells (HUVEC) and fibroblasts modeled by human mesenchymal stem cells (MSCs). The concentration ranges selected for each drug and investigational agent were based upon clinically achievable concentrations if the clinical Cmax of the agent was known.
# Compounds. The drugs and investigational agents used in this study are listed on Table 1. All of the agents used, including staurosporine (NSC755774) and gemcitabine (NSC613327), were obtained from the Developmental Therapeutics Program, NCI. FDA-approved anticancer drugs are available from the NCI at http://dtp.nci.nih.gov/branches/dscb/oncology_drugset_explanation.html. Drugs and investigational agents were >95% pure by proton nuclear magnetic resonance (NMR) and liquid chromatography/mass spectrometry (LC/MS). Stock solutions were prepared at 400x in DMSO, stored at -70 degrees C, and diluted in fresh medium prior to their use. The final concentration of DMSO in cell culture wells never exceeded 0.25% (v/v). The FDA-approved anticancer drug set is available from the Developmental Therapeutics Program at https://dtp.cancer.gov/organization/dscb/obtaining/available_plates.htm. All drugs and investigational agents were tested over a range starting from a high concentration at or near the clinical Cmax and decreasing in half-log increments. If the clinical Cmax for an agent had not been determined, the highest concentration tested was 10 microM.
# Cell Lines. The patient-derived cancer cell (PDC) lines: 292921-168-R-J2-PDC, K24384-001-R-PDC, and 521955-158-R2-J5-PDC pancreatic carcinomas, 556581-035-R-J1 ovarian carcinoma, 324938-238-R-J1-PDC, 855422-203-R-J1-PDC and 883617-216-R-J1-PDC urothelial bladder carcinomas, 743489-274-T-PDC renal cell carcinoma, 138582-R-J1 Merkel cell tumor, K60290-347-R-J1 and K57222-313-R-J1-PDC glioblastomas, 653999-131-R-J2-PDC, LG0703-F948-PDC, and 349418-098-R-PDC non-small cell lung carcinomas, 885512-296-R-J2-PDC, 171881-019-R-J1-PDC breast carcinomas and 186277-243-T-J2-PDC and 233499-124-R-J2-PDC colon carcinomas were obtained from the NCI Patient-Derived Models Repository (PDMR, https://pdmr.cancer.gov). The established cell lines NCI/ADR-RES (RRID:CVCL_14520 and OVCAR-5 (RRID:CVCL_1628) ovarian carcinomas, 786-O (RRID:CVCL_1051) and A498 (RRID:CVCL_A498) renal cell carcinoma, NCI-H211 (ATCC, cat. CRL-5824; RRID:CVCL_1529), NCI-H196 (ATCC, cat. CRL-5823, RRID:CVCL_1509), SW 1271 (ATCC, cat. CRL-2177, RRID:CVCL_1716) and NCI-H1876 (ATCC, cat. CRL-5902, RRID:CVCL_1503) small cell lung carcinomas, MDA-MB-231 (RRID:CVCL_0062) and MDA-MB-468 (RRID:CVCL_0419)breast carcinomas (10-12). Pooled donor human umbilical vein endothelial cells (HUVEC, Lonza, cat. CC-2519) and human mesenchymal stem cells (hMSC, Lonza, cat. PT-2501) were purchased from Lonza (Walkersville, MD).
# Cell Culture. All cells were maintained in an incubator at 37 degrees C and 5% CO2 with 95% humidity. The PDC lines were cultured according to standard operating procedures established by the NCI PDMR (https://pdmr.cancer.gov). Briefly all PDCs were thawed and cultured in Matrigel-coated flasks prepared with a working solution of 1X Ham's F-12 nutrient mix, without supplementation (Invitrogen, Waltham, MA, cat. 11765054), 100 U/mL penicillin-streptomycin (Invitrogen, cat. 15140122), and 2.5% Matrigel (Corning Inc., Corning, NY, cat. 354248) for the first three passages. […]
# [1] = second compound 0.1 µM, first compound 0.000316 µM
# [2] = second compound 0.1 µM, first compound 0.001 µM
# [3] = second compound 0.1 µM, first compound 0.00316 µM
# [4] = second compound 0.1 µM, first compound 0.01 µM
# [5] = second compound 0.1 µM, first compound 0.0316 µM
# [6] = second compound 0.1 µM, first compound 0.1 µM
# [7] = second compound 0.316 µM, first compound 0.000316 µM
# [8] = second compound 0.316 µM, first compound 0.001 µM
# [9] = second compound 0.316 µM, first compound 0.00316 µM
# [10] = second compound 0.316 µM, first compound 0.01 µM
# [11] = second compound 0.316 µM, first compound 0.0316 µM
# [12] = second compound 0.316 µM, first compound 0.1 µM
# [13] = second compound 1 µM, first compound 0.000316 µM
# [14] = second compound 1 µM, first compound 0.001 µM
# [15] = second compound 1 µM, first compound 0.00316 µM
# [16] = second compound 1 µM, first compound 0.01 µM
# [17] = second compound 1 µM, first compound 0.0316 µM
# [18] = second compound 1 µM, first compound 0.1 µM
# [19] = second compound 3.16 µM, first compound 0.000316 µM
# [20] = second compound 3.16 µM, first compound 0.001 µM
# [21] = second compound 3.16 µM, first compound 0.00316 µM
# [22] = second compound 3.16 µM, first compound 0.01 µM
# [23] = second compound 3.16 µM, first compound 0.0316 µM
# [24] = second compound 3.16 µM, first compound 0.1 µM
# [25] = second compound 10 µM, first compound 0.000316 µM
# [26] = second compound 10 µM, first compound 0.001 µM
# [27] = second compound 10 µM, first compound 0.00316 µM
# [28] = second compound 10 µM, first compound 0.01 µM
# [29] = second compound 10 µM, first compound 0.0316 µM
# [30] = second compound 10 µM, first compound 0.1 µM
SMILES,IC50 (second compound 0.1 µM),IC50 (second compound 0.316 µM),IC50 (second compound 1 µM),IC50 (second compound 3.16 µM),IC50 (second compound 10 µM),"viability, T/C [3]","viability, T/C [4]","viability, T/C [5]","viability, T/C [6]","viability, T/C [9]","viability, T/C [10]","viability, T/C [11]","viability, T/C [12]","viability, T/C [15]","viability, T/C [16]","viability, T/C [17]","viability, T/C [18]","viability, T/C [21]","viability, T/C [22]","viability, T/C [23]",other results
CC[C@@]1(O)C(=O)OCc2c1cc1n(c2=O)Cc2cc3c(CN(C)C)c(O)ccc3nc2-1 + NC1CC1c1ccc(-c2cccc(O)c2)cc1,> 100 nM,> 100 nM,> 100 nM,> 100 nM,> 100 nM,115%,105%,95.7%,99.5%,102%,109%,109%,95.9%,104%,100%,103%,94.8%,92.2%,101%,91%,"viability, T/C [1]: 95.1%; viability, T/C [2]: 101%; viability, T/C [7]: 97.3%; viability, T/C [8]: 104%; viability, T/C [13]: 92.4%; viability, T/C [14]: 93.8%; viability, T/C [19]: 90.7%; viability, T/C [20]: 95.3%; viability, T/C [24]: 82.6%; viability, T/C [25]: 88.8%; viability, T/C [26]: 90.4%; viability, T/C [27]: 102%; viability, T/C [28]: 115%; viability, T/C [29]: 98.2%; viability, T/C [30]: 78.2%"
CC(C)CC(NC(=O)C(Cc1ccccc1)NC(=O)c1cnccn1)B(O)O (stereo not given) + NC1CCC(NC2CC2c2ccccc2)CC1,0.529 nM,0.555 nM,0.572 nM,0.508 nM,0.511 nM,4.44%,3.35%,1.92%,1.52%,3.34%,2.71%,2.22%,0.68%,3.82%,2.43%,2.03%,0.58%,3.18%,2.05%,2.04%,"viability, T/C [1]: 84.1%; viability, T/C [2]: 7.65%; viability, T/C [7]: 87.9%; viability, T/C [8]: 10.3%; viability, T/C [13]: 95.9%; viability, T/C [14]: 6.67%; viability, T/C [19]: 80.8%; viability, T/C [20]: 5.93%; viability, T/C [24]: 0.46%; viability, T/C [25]: 82.5%; viability, T/C [26]: 4.35%; viability, T/C [27]: 2.41%; viability, T/C [28]: 1.45%; viability, T/C [29]: 0.95%; viability, T/C [30]: 0.47%"
CC1COCCN1c1cc(-c2ccnn2C)c2ccnc(-c3ccn[nH]3)c2n1 (stereo not given) + NC1CC1c1ccc(-c2cccc(O)c2)cc1,368 nM,176 nM,96.1 nM,212 nM,168 nM,79.2%,74.4%,72.5%,57.1%,72.4%,78.7%,71.4%,55.4%,85.6%,87.6%,65.5%,51%,86.6%,83.5%,70.9%,"viability, T/C (second compound 0.1 µM, first compound 0.316 µM): 49.8%; viability, T/C (second compound 0.1 µM, first compound 1 µM): 43.2%; viability, T/C (second compound 0.316 µM, first compound 0.316 µM): 45.4%; viability, T/C (second compound 0.316 µM, first compound 1 µM): 38.4%; viability, T/C (second compound 1 µM, first compound 0.316 µM): 51.4%; viability, T/C (second compound 1 µM, first compound 1 µM): 45.9%; viability, T/C [24]: 56.1%; viability, T/C (second compound 3.16 µM, first compound 0.316 µM): 47.7%; viability, T/C (second compound 3.16 µM, first compound 1 µM): 41.5%; viability, T/C [27]: 89.4%; viability, T/C [28]: 81.2%; viability, T/C [29]: 79.3%; viability, T/C [30]: 55.2%; viability, T/C (second compound 10 µM, first compound 0.316 µM): 43.5%; viability, T/C (second compound 10 µM, first compound 1 µM): 40.9%"
